Data on three compounds can be found in ChEMBL document CHEMBL2146442, “High-affinity and selective dopamine D₃ receptor full agonists” (Bioorg Med Chem Lett, 2012).

The structures appear in SMILES notation.

The nature of assay [1]: Displacement of [3H]Spiperone from dopamine D2 like receptor in rat brain homogenates. In kind it is tissue-based. On the technique in general: Displacement assays read how much labelled ligand stays bound in the presence of the test substance.
Assay [2] concerns the target D(3) dopamine receptor (Rattus norvegicus, UniProt P19020). As to the kind of experiment: Displacement of [3H]-R(+)-7-OHDPAT from dopamine D3 receptor in rat brain homogenates. It is filed as tissue-based.
The species named for another assay is Rattus norvegicus. Description: Selectivity ratio of Ki for dopamine D1 like receptor in rat brain homogenates to Ki for dopamine D3 receptor in rat brain homogenates. In kind it is tissue-based.
Assay [3] can be described thus: Displacement of [3H]SCH23390 from dopamine D1 like receptor in rat brain homogenates. In kind it is tissue-based.
In assay [4] the target is D(3) dopamine receptor (Homo sapiens, UniProt P35462). As to the kind of experiment: Agonist activity at human dopamine D3 receptor expressed in CHO cells by mitogenesis assay. In kind it is functional, cell-based.
Chain of D(3) dopamine receptor (Homo sapiens, UniProt P35462) (P35462 whole entry): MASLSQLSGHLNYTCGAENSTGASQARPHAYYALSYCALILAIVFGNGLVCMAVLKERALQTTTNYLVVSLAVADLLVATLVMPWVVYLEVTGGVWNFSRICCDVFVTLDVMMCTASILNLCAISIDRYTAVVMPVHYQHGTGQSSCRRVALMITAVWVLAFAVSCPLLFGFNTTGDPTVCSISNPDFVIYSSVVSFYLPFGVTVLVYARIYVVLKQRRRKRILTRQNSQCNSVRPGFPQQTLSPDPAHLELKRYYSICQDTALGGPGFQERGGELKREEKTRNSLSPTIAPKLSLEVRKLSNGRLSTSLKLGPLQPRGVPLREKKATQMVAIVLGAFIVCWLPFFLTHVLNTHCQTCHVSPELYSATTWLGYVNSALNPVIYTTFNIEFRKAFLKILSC
Assay [5] is described as follows: Selectivity ratio of dopamine D2 receptor to dopamine D3 receptor.
Assay [6] is described as follows: Selectivity ratio of dopamine D1 like receptor to dopamine D3 receptor.

Chain of D(3) dopamine receptor (Rattus norvegicus, UniProt P19020) (P19020 whole entry): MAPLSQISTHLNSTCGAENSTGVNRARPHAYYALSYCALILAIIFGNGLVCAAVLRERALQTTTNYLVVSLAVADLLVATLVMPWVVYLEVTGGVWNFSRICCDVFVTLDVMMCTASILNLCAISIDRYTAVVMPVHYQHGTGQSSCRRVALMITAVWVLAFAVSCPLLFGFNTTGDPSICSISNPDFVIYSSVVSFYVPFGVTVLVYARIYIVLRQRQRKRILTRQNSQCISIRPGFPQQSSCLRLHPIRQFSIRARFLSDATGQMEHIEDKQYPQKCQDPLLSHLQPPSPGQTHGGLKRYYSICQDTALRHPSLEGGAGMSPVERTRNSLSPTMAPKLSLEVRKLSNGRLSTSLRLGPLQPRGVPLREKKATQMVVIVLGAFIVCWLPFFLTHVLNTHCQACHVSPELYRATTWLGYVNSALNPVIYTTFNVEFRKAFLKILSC

As usually defined, the Ki is the equilibrium dissociation constant of an inhibitor or competing ligand from its target. Usually EC50 stands for the concentration giving half of the maximal effect. A low value points to a more potent agent. As to `CCCN(CC[C@H]1CC[C@H](NS(=O)(=O)c2cccnc2Cl)CC1)[C@H]1CCc2nc(N)sc2C1`, the inhibition constant Ki in assay [1] came to 170 nM; at D(3) dopamine receptor [2] it was 0.38 nM; in assay [3], 17400 nM. Besides, the Ratio Ki in the assay filed under Rattus norvegicus was 46300. The compound further had an EC50 at D(3) dopamine receptor [4] of 1.5 nM.
In the case of `CCCN(CC[C@H]1CC[C@H](NC(=O)c2cccc(-c3noc(C)n3)c2)CC1)[C@H]1CCc2nc(N)sc2C1`, the Ki is 359 nM in assay [1], 0.73 nM at D(3) dopamine receptor [2] and 9940 nM in assay [3]. Also, the Ratio Ki in the assay listed under Rattus norvegicus was 13700. In addition, at D(3) dopamine receptor [4], the half-maximal effective concentration (EC50) worked out at 4.3 nM.
Take `O=C(NCC[C@@H](O)CN1CCN(c2cccc(Cl)c2Cl)CC1)c1cc2ccccc2[nH]1`: the figures for the Selectivity ratio in assay [5] and in assay [6] were 100 and more than 1000, respectively.
